Data taken from patent US10905761B2, “Use of a lipopeptide or lipoprotein as an adjuvant in therapeutic or prophylactic vaccinations” (HELMHOLTZ-ZENTRUM FUER INFEKTIONSFORSCHUNG GMBH, priority 2002, dated 2021).
No end group written: not given here.

What was measured:
[1] = tested on: immunized animals; assay: Tolerability and anti-adjuvant antibodies in immunized animals; conditions: after intranasal administration of MALP-2 as adjuvant
[2] = tested on: BALB/c (H-2d) mice; format: in vivo; conditions: mice immunized i.n.; β-gal restimulation
[3] = tested on: primary dendritic cells from the bone marrow of BALB/c mice; assay: In vitro stimulation of primary dendritic cells; […]; format: cell-based
[4] = tested on: BALB/c (H-2d) mice; assay: Serum IgE level after immunization (capture ELISA, Example 6); format: in vivo; conditions: MALP-2 i.p. or via the mucous membranes; day 28
Description: Mice were immunized intraperitoneally (i.p.) and intranasally (i.n.) either with pure β-galactosidase (40 μg), exclusively MALP-2 or β-galactosidase mixed with MALP-2 (0.5 μg) on days 0, 7 and 14. On day 28 after the first immunization, serum samples were obtained, and the IgE levels were determined by means of a capture ELISA. The results are shown as IgE concentrations (ng/ml).
To determine the total IgE concentration in the serum of immunized and control animals, serial dilutions of the appropriate samples were incubated in microtiter plates which had previously been coated with anti-mouse IgE (100 μl/well) as capture antibody. After blocking with PBS with 1% BSA and 0.05% Tween-20 at room temperature for two hours, a 1:100 dilution of the serum in PBS-Tween was added (100 μl/well) and the plates were incubated at 37° C. for one hour. After rinsing, biotinylated anti-mouse IgE was added and the plates were incubated at 37° C. for a further hour. After rinsing four times, 100 μl of peroxidase-conjugated streptavidin (Pharmingen) were put in the wells, and the plates were incubated at 37° C. for 30 minutes. After rinsing four times, the reactions were developed by means of ABTS in 0.1 M citrate-phosphate buffer (pH 4.35) and a content of 0.01% H2O2. Serial dilutions of purified mouse IgE were used to produce a standard plot.

[5] = tested on: BALB/c (H-2d) mice; assay: Oral immunization with β-galactosidase and MALP-2 as mucosal adjuvant (serum antibody ELISA, Example 9); format: in vivo; conditions: 100 μg β-gal with 2 μg MALP-2, days 1, 14, 21, 31, serum day 45
Description: FIG. 12: Humoral responses stimulated after vaccination with MALP-2 as adjuvant in a dose 2 μg per animal per immunization. The mice were immunized orally either with β-galactosidase alone (100 μg/dose) or with β-galactosidase mixed with MALP-2 (2 μg/dose) on […]. On day 45 after the first immunization, serum samples were obtained, and the titers of the β-galactosidase-specific antibodies were determined with an ELISA.
Six- to eight-week old female BALB/c (H-2d) mice were purchased from Harlan Winkelmann GmbH (Borchen, Germany) and treated in accordance with local guidelines and directives of the European Community. Groups each of 5 mice were immunized on days 1, 14, 21 and 31 with 100 μg of β-gal (Boehringer, Mannheim, Germany) either alone or with 2 μg of synthetic MALP-2 as adjuvant by the oral route (dose 25 μl). On day 45, serum samples were taken and stored at −20° C. until β-gal-specific antibodies were determined. 96-well Nunc-Immuno MaxiSorp® assay plates (Nunc, Roskilde, Denmark) were coated with 100 μl of β-gal at 5 μg/ml in 0.05 M carbonate buffer (pH 8.2) per well. […] The final value titers have been expressed as the reciprocal logarithmic log2 values of the last dilution which resulted, after incubation for 30 minutes, in an optical density at 405 nm of 0.1 units above the values for the negative controls.

[6] = tested on: BALB/c (H-2d) mice; assay: Cellular responses (spleen cell proliferation) after immunization with different MALP-2 doses (Example 3); format: in vivo; conditions: 1 μg MALP-2; spleen cells restimulated with β-galactosidase; day 28
Description: β-Galactosidase-specific T-cell proliferation responses of mouse spleen cells immunized by the i.p. or i.n. routes with either pure β-galactosidase (40 μg/dose) or β-galactosidase mixed with MAPL-2 (1 or 0.5 μg/dose) on days 0, 7 and 14. On day 28 after the primary immunization, the animals were sacrificed and the spleen cells were restimulated in vitro in the presence of 20 μg/ml soluble β-galactosidase for four days. The results are shown as stimulation indices (cpm of samples/cpm in unstimulated control cells).
Six- to eight-week old female BALB/c (H-2d) mice were purchased from Harlan Winkelmann GmbH (Borchen, Germany) and treated in accordance with local and EU directives. Groups each of 5 mice were immunized on day 1, 7 and 14 either with 40 μg of pure β-galactosidase (Boehringer, Mannheim, Germany), or with admixture of 1 or 0.5 μg of synthetic MALP-2. For the intranasal administration (i.n.), 10 μl was administered into each nostril, while for the i.p. injection β-galactosidase was resuspended with or without MALP-2 in 400 μl of PBS. […] The cells were then harvested on filter paper (Filtermat A; Wallac, Freiburg, Germany) with a cell harvester (Inotech, Wohlen, Switzerland), and the amount of [H]thymidine incorporated into the DNA of the proliferated cells was determined with the aid of a […] scintillation counter (Wallac 1450, Micro-Trilux). […]

S-[2,3-bispalmitoyloxypropyl]cysteinyl-GNNDESNISFKEK ({S‑(2,3-bispalmitoyloxypropyl)Cys}-GNNDESNISFKEK) [MALP-2]
anti-MALP-2 antibodies [1]: No anti-MALP-2 antibodies were detectable
IL-10 content in supernatants of spleen cells stimulated in vitro [2]: 2.2 ng/mL
effect on expression of costimulating molecule CD80 in dendritic cells ([3]; 5 ng/ml MALP-2, 12 and 24 hours): slight, if present at all
expression of CD40 and costimulating molecule CD86 in dendritic cells ([3]; 5 ng/ml MALP-2, 12 and 24 hours, versus LPS positive control): not increased
activation of primary dendritic cells ([3]; 5 ng/ml MALP-2, compared with LPS 10 ng/ml): only a very weak activation
up regulation of CD40, CD80 and CD86 in dendritic cells ([3]; 10 ng/ml LPS or 5 ng/ml MALP-2): only a weak effect, or none
serum IgE content [4]: does not lead to an increase
serum immune responses to β-gal after oral immunization [5]: Immune responses to β-gal were observed
cell-mediated immunization (spleen cell proliferation) at higher dose [6]: cell-mediated immunization is reduced
